Measured values as given in patent US20070128217A1 (priority 2003, published 2007).

Legend:
[1] = system: recombinant human anti-SARS-CoV antibody 03-018; format: binding; design: Binding of antibody 03-018 to linear peptides of the N protein of SARS-CoV Urbani / Binding of antibody 03-018 to looped/cyclic peptides of the N protein of SARS-CoV Urbani: unit not given here
[2] = system: control sera (pooled serum of ten healthy LUMC hospital workers; commercial negative donor pooled serum from the Dutch bloodbank); format: binding, human
[3] = system: antibodies in sera from SARS patients (sera 1a, 1b, 2, 6, 37, 62, London, SARS-yellow, SARS-green); format: binding, human; design: Binding of serum 6 to linear peptides of protein X1 of SARS-CoV Urbani / Binding of serum 37 to linear peptides of protein X1 of SARS-CoV Urbani / Binding of serum 6 to looped/cyclic peptide (PEPSCAN-ELISA) / Binding of serum 37 to looped/cyclic peptide (PEPSCAN-ELISA) / Binding of serum 37 to looped/cyclic peptides of protein X1 of SARS-CoV Urbani / Binding of serum 6 to linear peptides of protein X2 / Binding of serum 37 to linear peptides of protein X2 / Binding of serum 37 to looped/cyclic peptides of protein X2 of SARS-CoV Urbani / Binding of serum 6 to linear peptides of protein M of SARS-CoV Urbani / Binding of serum 37 to linear peptides of protein M of SARS-CoV Urbani / Binding of serum 6 to looped/cyclic peptides of protein M of SARS-CoV Urbani / Binding of serum 37 to looped/cyclic peptides of protein M of SARS-CoV Urbani / Binding of serum 6 to linear peptides of protein X3 of SARS-CoV Urbani / Binding of serum 37 to linear peptides of protein X3 of SARS-CoV Urbani / Binding of serum 37 to looped/cyclic peptides of protein X3 of SARS-CoV Urbani / Binding of serum 6 to linear peptides of protein X4 of SARS-CoV Urbani / Binding of serum 37 to linear peptides of protein X4 of SARS-CoV Urbani / Binding of serum 37 to looped/cyclic peptides of protein X4 of SARS-CoV Urbani / Binding of serum 6 to linear peptides of protein X5 of SARS-CoV Urbani / Binding of serum 37 to linear peptides of protein X5 of SARS-CoV Urbani / Binding of serum 37 to looped/cyclic peptides of protein X5 of SARS-CoV Urbani / Binding of serum 6 to linear peptides of protein N of SARS-CoV Urbani / Binding of serum 37 to linear peptides of protein N of SARS-CoV Urbani / Binding of serum 6 to linear peptide (PEPSCAN-ELISA) / Binding of serum 1a to looped/cyclic peptides of protein N of SARS-CoV Urbani / Binding of serum 1b to looped/cyclic peptides of protein N of SARS-CoV Urbani / Binding of serum 2 to looped/cyclic peptides of protein N of SARS-CoV Urbani / Binding of serum 6 to looped/cyclic peptides of protein N of SARS-CoV Urbani / Binding of serum 37 to looped/cyclic peptides of protein N of SARS-CoV Urbani / Binding of serum 62 to looped/cyclic peptides of protein N of SARS-CoV Urbani / Binding of serum London to looped/cyclic peptides of protein N of SARS-CoV Urbani / Binding of serum SARS-green to looped/cyclic peptides of protein N of SARS-CoV Urbani: unit not given here
[4] = system: rabbit serum obtained by immunizing a rabbit with the SARS-CoV strain Frankfurt 1; format: binding; design: Binding of a rabbit serum to linear peptides / Binding of a rabbit serum to looped peptides / Rabbit serum linear peptides / Rabbit serum looped peptides / Binding of a rabbit serum to linear peptides of protein N of SARS-CoV Urbani (Rabbit serum linear peptides) / Binding of a rabbit serum to looped/cyclic peptides of protein N of SARS-CoV Urbani (Rabbit serum looped peptides): unit not given here

| Sequence | Binding of antibody 03-018 to linear peptides of the N protein of SARS-CoV Urbani [1] | Binding of antibody 03-018 to looped/cyclic peptides of the N protein of SARS-CoV Urbani [1] | Control Serum Blood-Bank Looped peptides [2] | Control serum Blood-bank linear peptides [2] | Control serum LUMC linear peptides [2] | Control serum LUMC looped peptides [2] | Binding of serum 1a to linear peptides of protein N of SARS-CoV Urbani [3] | Binding of serum 1a to looped/cyclic peptides of protein N of SARS-CoV Urbani [3] | Binding of serum 1b to linear peptides of protein N of SARS-CoV Urbani [3] | Binding of serum 1b to looped/cyclic peptides of protein N of SARS-CoV Urbani [3] | Binding of serum 2 to linear peptides of protein N of SARS-CoV Urbani [3] | Binding of serum 2 to looped/cyclic peptides of protein N of SARS-CoV Urbani [3] | Binding of serum 6 to linear peptides of protein N of SARS-CoV Urbani [3] | Binding of serum 6 to looped/cyclic peptides of protein N of SARS-CoV Urbani [3] | Binding of serum 37 to linear peptides of protein N of SARS-CoV Urbani [3] | Binding of serum 37 to looped/cyclic peptides of protein N of SARS-CoV Urbani [3] | Binding of serum 62 to linear peptides of protein N of SARS-CoV Urbani [3] | Binding of serum 62 to looped/cyclic peptides of protein N of SARS-CoV Urbani [3] | Binding of serum London to linear peptides of protein N of SARS-CoV Urbani [3] | Binding of serum London to looped/cyclic peptides of protein N of SARS-CoV Urbani [3] | also measured |
| --- | --- | --- | --- | --- | --- | --- | --- | --- | --- | --- | --- | --- | --- | --- | --- | --- | --- | --- | --- | --- | --- |
| DDFSRQLQNSMSGAS | 0.2 | 0.2 | 0.3 | 0.8 | 0.6 | 0.3 | 0.2 | 0.3 | 0.1 | 0.1 | 0.2 | 0.3 | 0.2 | 0.1 | 0.8 | 0.4 | 0.7 | 0.3 | 0.7 | 0.2 | Binding of serum SARS-green to linear peptides of protein N of SARS-CoV Urbani [3]: 0.4; Binding of serum SARS-green to looped/cyclic peptides of protein N of SARS-CoV Urbani [3]: 0.2; Binding of serum SARS-yellow to linear peptides of protein N of SARS-CoV Urbani [3]: 0.6; Binding of serum SARS-yellow to looped/cyclic peptides of protein N of SARS-CoV Urbani [3]: 0.1; Binding of a rabbit serum to linear peptides of protein N of SARS-CoV Urbani (Rabbit serum linear peptides) [4]: 0.5; Binding of a rabbit serum to looped/cyclic peptides of protein N of SARS-CoV Urbani (Rabbit serum looped peptides) [4]: 0.3 |
| DEAQPLPQRQKKQPT | 0.1 | 0.2 | 0.3 | 0.7 | 0.8 | 0.3 | 0.2 | 0.2 | 0.2 | 0.1 | 0.3 | 0.2 | 0.3 | 0.1 | 0.8 | 0.3 | 0.7 | 0.2 | 1.5 | 0.3 | Binding of serum SARS-green to linear peptides of protein N of SARS-CoV Urbani [3]: 0.6; Binding of serum SARS-green to looped/cyclic peptides of protein N of SARS-CoV Urbani [3]: 0.0; Binding of serum SARS-yellow to linear peptides of protein N of SARS-CoV Urbani [3]: 1.6; Binding of serum SARS-yellow to looped/cyclic peptides of protein N of SARS-CoV Urbani [3]: 0.2; Binding of a rabbit serum to linear peptides of protein N of SARS-CoV Urbani (Rabbit serum linear peptides) [4]: 0.1; Binding of a rabbit serum to looped/cyclic peptides of protein N of SARS-CoV Urbani (Rabbit serum looped peptides) [4]: 0.0 |
| MSRIGMEVTPSGTWL | 0.1 | 0.2 | 0.7 | 0.8 | 0.7 | 0.7 | 0.3 | 0.4 | 0.1 | 0.3 | 0.2 | 0.5 | 0.2 | 0.3 | 0.6 | 0.6 | 0.7 | 0.7 | 0.5 | 0.5 | Binding of serum SARS-green to linear peptides of protein N of SARS-CoV Urbani [3]: 0.3; Binding of serum SARS-green to looped/cyclic peptides of protein N of SARS-CoV Urbani [3]: 0.7; Binding of serum SARS-yellow to linear peptides of protein N of SARS-CoV Urbani [3]: 0.6; Binding of serum SARS-yellow to looped/cyclic peptides of protein N of SARS-CoV Urbani [3]: 0.5; Binding of a rabbit serum to linear peptides of protein N of SARS-CoV Urbani (Rabbit serum linear peptides) [4]: 0.2; Binding of a rabbit serum to looped/cyclic peptides of protein N of SARS-CoV Urbani (Rabbit serum looped peptides) [4]: 0.5 |
| ADMDDFSRQLQNSMS | 0.1 | 0.1 | 0.4 | 0.8 | 0.7 | 0.2 | 0.3 | 0.3 | 0.2 | 0.2 | 0.2 | 0.2 | 1.5 | 0.0 | 0.7 | 0.4 | 0.6 | 0.3 | 0.8 | 0.2 | Binding of serum SARS-green to linear peptides of protein N of SARS-CoV Urbani [3]: 0.3; Binding of serum SARS-green to looped/cyclic peptides of protein N of SARS-CoV Urbani [3]: 0.1; Binding of serum SARS-yellow to linear peptides of protein N of SARS-CoV Urbani [3]: 0.7; Binding of serum SARS-yellow to looped/cyclic peptides of protein N of SARS-CoV Urbani [3]: 0.2; Binding of a rabbit serum to linear peptides of protein N of SARS-CoV Urbani (Rabbit serum linear peptides) [4]: 0.2; Binding of a rabbit serum to looped/cyclic peptides of protein N of SARS-CoV Urbani (Rabbit serum looped peptides) [4]: 0.4 |
